Test results: ChEMBL document CHEMBL3045592, “Studies of O,O-dimethyl α-(2,4-dichlorophenoxyacetoxy)ethylphosphonate (HW02) as a new herbicide. 1. Synthesis and herbicidal activity of HW02 and analogues as novel inhibitors of pyruvate dehydrogenase complex” (J Agric Food Chem, 2011)

Columns and labels:
Amaranthus spinosus [1] = experiment: Pre-emergence herbicidal activity against Amaranthus spinosus assessed as growth inhibition at 450 ai g/ha after 20 days by green house test; assay type: functional
Digitaria sanguinalis [2] = experiment: Post-emergence herbicidal activity against Digitaria sanguinalis (hairy crabgrass) assessed as growth inhibition at 1500 ai g/ha after 20 days by green house test; assay type: functional
Chenopodium album [3] = experiment: Post-emergence herbicidal activity against Chenopodium album assessed as growth inhibition at 75 ai g/ha after 20 days by green house test; assay type: functional
Medicago sativa [4] = experiment: Post-emergence herbicidal activity against Medicago sativa (alfalfa) assessed as growth inhibition at 1500 ai g/ha after 20 days by green house test; assay type: functional
Medicago sativa [5] = experiment: Pre-emergence herbicidal activity against Medicago sativa (alfalfa) assessed as growth inhibition at 1500 ai g/ha after 20 days by green house test; assay type: functional
Echinochloa crus-galli [6] = experiment: Post-emergence herbicidal activity against Echinochloa crus-galli (barnyard grass) assessed as growth inhibition at 1500 ai g/ha after 20 days by green house test; assay type: functional
Amaranthus retroflexus [7] = experiment: Post-emergence herbicidal activity against Amaranthus retroflexus assessed as growth inhibition at 1500 ai g/ha after 20 days by green house test; assay type: functional
[8] = test system: Brassica rapa subsp. oleifera; experiment: Post-emergence herbicidal activity against Brassica rapa subsp. oleifera Si Yue Man assessed as growth inhibition at 1500 ai g/ha after 20 days by green house test; assay type: functional
Chenopodium album [9] = experiment: Pre-emergence herbicidal activity against Chenopodium album assessed as growth inhibition at 75 ai g/ha after 20 days by green house test; assay type: functional
Setaria viridis [10] = experiment: Post-emergence herbicidal activity against Setaria viridis (green foxtail) assessed as growth inhibition at 450 ai g/ha after 20 days by green house test; assay type: functional
Digitaria sanguinalis [11] = experiment: Post-emergence herbicidal activity against Digitaria sanguinalis (hairy crabgrass) assessed as growth inhibition at 150 ai g/ha after 20 days by green house test; assay type: functional
Cucumis sativus [12] = experiment: Herbicidal activity against Cucumis sativus Jin 4 (cucumber) assessed as inhibition of root growth after 3 days; assay type: functional, organism-based; settings: Jin 4, 72 h
Digitaria sanguinalis [13] = experiment: Pre-emergence herbicidal activity against Digitaria sanguinalis (hairy crabgrass) assessed as growth inhibition at 1500 ai g/ha after 20 days by green house test; assay type: functional
Amaranthus spinosus [14] = experiment: Post-emergence herbicidal activity against Amaranthus spinosus assessed as growth inhibition at 75 ai g/ha after 20 days by green house test; assay type: functional
Digitaria sanguinalis [15] = experiment: Post-emergence herbicidal activity against Digitaria sanguinalis (hairy crabgrass) assessed as growth inhibition at 450 ai g/ha after 20 days by green house test; assay type: functional
Chenopodium album [16] = experiment: Pre-emergence herbicidal activity against Chenopodium album assessed as growth inhibition at 450 ai g/ha after 20 days by green house test; assay type: functional
Digitaria sanguinalis [17] = experiment: Pre-emergence herbicidal activity against Digitaria sanguinalis (hairy crabgrass) assessed as growth inhibition at 450 ai g/ha after 20 days by green house test; assay type: functional
Digitaria sanguinalis [18] = experiment: Pre-emergence herbicidal activity against Digitaria sanguinalis (hairy crabgrass) assessed as growth inhibition at 75 ai g/ha after 20 days by green house test; assay type: functional
Digitaria sanguinalis [19] = experiment: Pre-emergence herbicidal activity against Digitaria sanguinalis (hairy crabgrass) assessed as growth inhibition at 150 ai g/ha after 20 days by green house test; assay type: functional
Echinochloa crus-galli [20] = experiment: Post-emergence herbicidal activity against Echinochloa crus-galli (barnyard grass) assessed as growth inhibition at 450 ai g/ha after 20 days by green house test; assay type: functional
Chenopodium album [21] = experiment: Pre-emergence herbicidal activity against Chenopodium album assessed as growth inhibition at 150 ai g/ha after 20 days by green house test; assay type: functional
Abutilon theophrasti [22] = experiment: Pre-emergence herbicidal activity against Abutilon theophrasti (velvetleaf) assessed as growth inhibition at 450 ai g/ha after 20 days by green house test; assay type: functional
Chenopodium album [23] = experiment: Post-emergence herbicidal activity against Chenopodium album assessed as growth inhibition at 450 ai g/ha after 20 days by green house test; assay type: functional
Abutilon theophrasti [24] = experiment: Post-emergence herbicidal activity against Abutilon theophrasti (velvetleaf) assessed as growth inhibition at 150 ai g/ha after 20 days by green house test; assay type: functional
Amaranthus spinosus [25] = experiment: Post-emergence herbicidal activity against Amaranthus spinosus assessed as growth inhibition at 450 ai g/ha after 20 days by green house test; assay type: functional
Setaria viridis [26] = experiment: Pre-emergence herbicidal activity against Setaria viridis (green foxtail) assessed as growth inhibition at 150 ai g/ha after 20 days by green house test; assay type: functional
Digitaria sanguinalis [27] = experiment: Post-emergence herbicidal activity against Digitaria sanguinalis (hairy crabgrass) assessed as growth inhibition at 75 ai g/ha after 20 days by green house test; assay type: functional
Cucumis sativus [28] = experiment: Herbicidal activity against Cucumis sativus Jin 4 (cucumber) assessed as inhibition of stem growth after 3 days; assay type: functional, organism-based; settings: Jin 4, 72 h
Amaranthus spinosus [29] = experiment: Post-emergence herbicidal activity against Amaranthus spinosus assessed as growth inhibition at 150 ai g/ha after 20 days by green house test; assay type: functional
Abutilon theophrasti [30] = experiment: Pre-emergence herbicidal activity against Abutilon theophrasti (velvetleaf) assessed as growth inhibition at 150 ai g/ha after 20 days by green house test; assay type: functional
Amaranthus retroflexus [31] = experiment: Post-emergence herbicidal activity against Amaranthus retroflexus assessed as growth inhibition at 450 ai g/ha after 20 days by green house test; assay type: functional
Setaria viridis [32] = experiment: Pre-emergence herbicidal activity against Setaria viridis (green foxtail) assessed as growth inhibition at 75 ai g/ha after 20 days by green house test; assay type: functional
Amaranthus spinosus [33] = experiment: Pre-emergence herbicidal activity against Amaranthus spinosus assessed as growth inhibition at 150 ai g/ha after 20 days by green house test; assay type: functional
Chenopodium album [34] = experiment: Post-emergence herbicidal activity against Chenopodium album assessed as growth inhibition at 150 ai g/ha after 20 days by green house test; assay type: functional
Setaria viridis [35] = experiment: Post-emergence herbicidal activity against Setaria viridis (green foxtail) assessed as growth inhibition at 150 ai g/ha after 20 days by green house test; assay type: functional
Pisum sativum = experiment: Post-emergence herbicidal activity against Pisum sativum Zhongwan-2 (pea) assessed as growth inhibition at 450 ai g/ha after 20 days by green house test; settings: Lathyrus oleraceus
Setaria viridis [36] = experiment: Pre-emergence herbicidal activity against Setaria viridis (green foxtail) assessed as growth inhibition at 450 ai g/ha after 20 days by green house test; assay type: functional
Amaranthus spinosus [37] = experiment: Pre-emergence herbicidal activity against Amaranthus spinosus assessed as growth inhibition at 75 ai g/ha after 20 days by green house test; assay type: functional
Amaranthus retroflexus [38] = experiment: Pre-emergence herbicidal activity against Amaranthus retroflexus assessed as growth inhibition at 1500 ai g/ha after 20 days by green house test; assay type: functional
[39] = biological target: Pyruvate dehydrogenase complex (Vigna radiata var. radiata); experiment: Inhibition of PDHc in Vigna radiata var. radiata VC2778A shoot mitochondria assessed as decrease in rate of NADH formation using sodium pyruvate as substrate preincubated for 25 min before substrate addition measured after 1 min by spectrophotometric assay; assay type: protein-complex assay
Abutilon theophrasti [40] = experiment: Pre-emergence herbicidal activity against Abutilon theophrasti (velvetleaf) assessed as growth inhibition at 75 ai g/ha after 20 days by green house test; assay type: functional
Setaria viridis [41] = experiment: Post-emergence herbicidal activity against Setaria viridis (green foxtail) assessed as growth inhibition at 75 ai g/ha after 20 days by green house test; assay type: functional
Abutilon theophrasti [42] = experiment: Post-emergence herbicidal activity against Abutilon theophrasti (velvetleaf) assessed as growth inhibition at 75 ai g/ha after 20 days by green house test; assay type: functional
Abutilon theophrasti [43] = experiment: Post-emergence herbicidal activity against Abutilon theophrasti (velvetleaf) assessed as growth inhibition at 450 ai g/ha after 20 days by green house test; assay type: functional
Echinochloa crus-galli [44] = experiment: Pre-emergence herbicidal activity against Echinochloa crus-galli (barnyard grass) assessed as growth inhibition at 1500 ai g/ha after 20 days by green house test; assay type: functional
[45] = test system: Brassica rapa subsp. oleifera; experiment: Pre-emergence herbicidal activity against Brassica rapa subsp. oleifera Si Yue Man assessed as growth inhibition at 1500 ai g/ha after 20 days by green house test; assay type: functional
[46] = Toxicity against Oryza sativa (rice) assessed as growth inhibition at 450 ai g/ha post-emergent application measured after 20 days by green house crop selectivity test; assay type: organism-based; settings: in vivo, read-out: GI
Brassica juncea = experiment: Post-emergence herbicidal activity against Brassica juncea assessed as growth inhibition at 450 ai g/ha after 20 days by green house test; assay type: functional

COP(=O)(OC)C(OC(=O)COc1ccc(Cl)cc1Cl)c1ccccc1 (stereo not drawn)
growth inhibition (GI) (Amaranthus spinosus [1]): 0% | growth inhibition (GI) (Digitaria sanguinalis [2]): <=50% | growth inhibition (GI) (Chenopodium album [3]): 82.5% | growth inhibition (GI) (Medicago sativa [4]): 90% | growth inhibition (GI) (Medicago sativa [5]): 90% | growth inhibition (GI) (Echinochloa crus-galli [6]): <=50% | growth inhibition (GI) (Amaranthus retroflexus [7]): 90% | growth inhibition (GI) [8]: 90% | growth inhibition (GI) (Chenopodium album [9]): 0% | growth inhibition (GI) (Setaria viridis [10]): 0% | growth inhibition (GI) (Digitaria sanguinalis [11]): 0% | IC50 (Cucumis sativus [12]): 0.0142 µM | growth inhibition (GI) (Digitaria sanguinalis [13]): 50% | growth inhibition (GI) (Amaranthus spinosus [14]): 62.5% | growth inhibition (GI) (Digitaria sanguinalis [15]): 0% | growth inhibition (GI) (Chenopodium album [16]): 0% | growth inhibition (GI) (Digitaria sanguinalis [17]): 45% | growth inhibition (GI) (Digitaria sanguinalis [18]): 0% | growth inhibition (GI) (Digitaria sanguinalis [19]): 0% | growth inhibition (GI) (Echinochloa crus-galli [20]): 25% | growth inhibition (GI) (Chenopodium album [21]): 0% | growth inhibition (GI) (Abutilon theophrasti [22]): 0% | growth inhibition (GI) (Chenopodium album [23]): 97.5% | growth inhibition (GI) (Abutilon theophrasti [24]): 92.5% | growth inhibition (GI) (Amaranthus spinosus [25]): 87.5% | growth inhibition (GI) (Setaria viridis [26]): 0% | growth inhibition (GI) (Digitaria sanguinalis [27]): 0% | IC50 (Cucumis sativus [28]): 8.95 µM | growth inhibition (GI) (Amaranthus spinosus [29]): 70% | growth inhibition (GI) (Abutilon theophrasti [30]): 0% | growth inhibition (GI) (Amaranthus retroflexus [31]): 87.5% | growth inhibition (GI) (Setaria viridis [32]): 0% | growth inhibition (GI) (Amaranthus spinosus [33]): 0% | growth inhibition (GI) (Chenopodium album [34]): 92.5% | growth inhibition (GI) (Setaria viridis [35]): 0% | growth inhibition (GI) (Pisum sativum): 96.5% | growth inhibition (GI) (Setaria viridis [36]): 30% | growth inhibition (GI) (Amaranthus spinosus [37]): 0% | growth inhibition (GI) (Amaranthus retroflexus [38]): 90% | IC50 [39]: 95.4 µM | growth inhibition (GI) (Abutilon theophrasti [40]): 0% | growth inhibition (GI) (Setaria viridis [41]): 0% | growth inhibition (GI) (Abutilon theophrasti [42]): 82.5% | growth inhibition (GI) (Abutilon theophrasti [43]): 100% | growth inhibition (GI) (Echinochloa crus-galli [44]): 50% | growth inhibition (GI) [45]: 90% | inhibition at 480 h [46]: 10% | growth inhibition (GI) (Brassica juncea): 97.5%
